Like-named read-outs stand apart in the source and are kept apart here.
Experiments:
Fusarium avenaceum [1] = assay: Inhibition of fungus in a nutrient solution: Fusarium avenaceum; format: cell-based; settings: 6 days at 21-23° C.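 Note: 0 means no fungus growth and higher grades mean more surface covered.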
Summary of the method: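 Grape juice/water (1:1) nutrient solution mixed with powdered test agent, then inoculated with conidia. Surface fungal growth scored on a 0–5 scale after 6 days at 21–23 °C.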

Piricularia oryzae = format: in vivo; settings: 5 days
Venturia inaequalis = assay: Prophylactic leaf treatment of apples in open field test against Venturia inaequalis; format: in vivo; settings: 3 weeks
Penicillium digitatum = assay: Inhibition of fungus in a nutrient solution: Penicillium digitatum; format: cell-based; settings: 6 days at 21-23° C.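 Note: 0 means no fungus growth and higher grades mean more surface covered.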
Ustilago nuda nuda = assay: Treatment of barley seeds in open field tests against Ustilago nuda nuda; format: in vivo; settings: winter barley; 100 g/100 kg seeds; eight months
Description: (§1) Treatment of wheat and barley seeds in open field tests against Ustilago nuda
(§2) Winter wheat seeds which had been infested with the smut cause Ustilago nuda tritici and winter barley seeds infested with Ustilago nuda nuda were treated with the agents listed in the table below and were seeded at seeding time in open fields. As a control untreated seeds were likewise included in the seed. After eight months the affected heads were counted for each test group and their proportion was calculated in order to find the fungicidal activity by the following formula: [formula]
(§3) The active compounds were employed in the form of 20% concentration powder compositions.

Helminthosporium gram = settings: about 5 weeks
Description: Treatment of barley seeds infested with Helminthosporium gram
After emergence, the plants were subjected to illumination for 12 hours per day. After about 5 weeks the infested plants were counted and the total number of plants for each test were also counted. The active agents tested were used as pulverulent compositions.

Tilletia caries = assay: Seed treatment in open field tests regarding infestation by Tilletia caries (oats); format: in vivo
Fusarium nivale = assay: Treatment of rye seeds against Fusarium nivale; format: in vivo; settings: 100 g/100 kg; about 4 weeks
Description: Treatment of rye seeds against Fusarium nivale
Rye seeds with a natural infestation by Fusarium nivale were seeded in earth filled pots and left for germination at about 6° C. Part of the seeds was treated before seeding with the active agents as appears from the subsequent table and part was untreated. After emergence of the seedlings the plants were illuminated with artificial light for 12 hours each day. After about 4 weeks the degree of infestation was determined in percentages. The fungicidal activity was calculated on the basis of the following formula: [formula]
The active agents were used in the form of 20% concentration compositions.

Alternaria solani = assay: Inhibition of fungus in a nutrient solution: Alternaria solani; format: cell-based; settings: 6 days at 21-23° C.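 Note: 0 means no fungus growth and higher grades mean more surface covered.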
Ustilago nuda tritici = assay: Treatment of wheat seeds in open field tests against Ustilago nuda tritici; format: in vivo; settings: winter wheat; 100 g/100 kg seeds; eight months
Description: as §1, §2, §3

Ustilago avenae = assay: Oat seed treatment for Ustilago avenae; format: in vivo; settings: 100 g active agent/100 kg; 10 weeks
Pythium ultimum = assay: Threshold concentration test for use of the compounds against Pythium ultimum (infested soil, garden peas); format: in vivo; parameters: key to root evaluation (1-4): 4: white roots without fungous necrosis; 3: white roots, minor fungous necrosis; 2: brown roots, already more pronounced fungous necrosis; 1: heavy fungous necrosis, roots rotted; settings: for root evaluation (1-4): 3 weeks; for number of sound peas: 20 grains per dish, 3 weeks at 20-24° C.
Summary of the method: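 Pulverulent agents at 20% concentration mixed evenly into soil heavily infested with Pythium ultimum, then garden peas ('Wunder von Kelvedon', 20 per dish) sown at once. After three weeks at 20–24 °C in a hothouse, sound peas counted and roots scored on a 1–4 scale.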

Botrytis cinerea = assay: Inhibition of fungus in a nutrient solution: Botrytis cinerea; format: cell-based; settings: 6 days at 21-23° C.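 Note: 0 means no fungus growth and higher grades mean more surface covered.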
[2] = system: Helminthosporium gramineum; assay: Seed treatment in open field tests for infestation by Helminthosporium gramineum (barley); format: in vivo
Description: Seed treatment in open field tests for infestation by Helminthosporium gramineum
The active agents were used in the form of pulverulent compositions. After about 8 months in case of winter barley and after about 3 months in case of summer barley the infested plants were counted and the activity was calculated by the formula [formula]

Fusarium avenaceum [3] = assay: Threshold concentration test in case of Fusarium avenaceum (infested soil, garden peas); format: in vivo; settings: for number of sound peas: 20 grains per dish, 18 days at 20-24° C.; for root evaluation (1-4): 18 days
Summary of the method: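 Soil heavily infested with Fusarium avenaceum was mixed uniformly with a 20% powder formulation of active agent, then sown immediately with 20 garden pea seeds ('Wunder von Kelvedon') per dish. After 18 days in a greenhouse at 20° to 24° C., sound plants were counted and roots scored on a 1–4 scale.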

[4] = concentration of active agent 0.1 (percentages)
[5] = concentration of active agent 0.005 (in gram)
[6] = concentration of active agent 0.025 (in gram)
[7] = summer barley, 50 g active agent/100 kg barley, about 3 months
[8] = summer barley, 100 g active agent/100 kg barley, about 3 months
[9] = winter barley, 75 g active agent/100 kg barley, about 8 months
[10] = winter barley, 100 g active agent/100 kg barley, about 8 months

Row | SMILES | fungus development on the surface of the nutrient solution (0-5) (Fusarium avenaceum [1]; 0.004%) | % activity (Piricularia oryzae; [4]) [%] | % activity (Venturia inaequalis; [5]) [%] | % activity (Venturia inaequalis; [6]) [%] | fungus development on the surface of the nutrient solution (0-5) (Penicillium digitatum; 0.002%) | fungus development on the surface of the nutrient solution (0-5) (Penicillium digitatum; 0.004%) | % activity (Ustilago nuda nuda) [%] | % activity (Helminthosporium gram; 20 g active agent per 100 kg) [%] | % activity (Helminthosporium gram; 50 g active agent per 100 kg) [%] | fungus development on the surface of the nutrient solution (0-5) (Alternaria solani; 0.002%) | fungus development on the surface of the nutrient solution (0-5) (Alternaria solani; 0.004%) | % activity (Ustilago nuda tritici) [%] | % activity (Ustilago avenae) [%] | root evaluation (1-4) (Pythium ultimum; 20 mg/l soil) | number of sound peas (Pythium ultimum; 20 mg/l soil) | root evaluation (1-4) (Pythium ultimum; 40 mg/l soil) | number of sound peas (Pythium ultimum; 40 mg/l soil) | root evaluation (1-4) (Pythium ultimum; 80 mg/l soil) | number of sound peas (Pythium ultimum; 80 mg/l soil) | fungus development on the surface of the nutrient solution (0-5) (Botrytis cinerea; 0.002%) | other results
1 | CC(C)CS(=O)(=O)c1nnc(C(N)=O)s1 [5-isobutylsulfonyl-1,3,4-thiadiazole-2-carboxamide] | 0 | 90 | 87 | 95 | 1 | 0 | 79 | 60 | 87 | 0 | 0 | 75 | 87 | 1 | 15 | 4 | 18 | 4 | 18 | 2 (5 to 10% of the surface covered by the fungus turf) | % activity (Piricularia oryzae; concentration of active agent 0.02 (percentages)): 65%; % activity (Tilletia caries; summer oats, 50 g active agent/100 kg, about 4 months): 99%; % activity (Fusarium nivale): 99.2%; fungus development on the surface of the nutrient solution (0-5) (Botrytis cinerea; 0.004%): 1; % activity [2, 7]: 99.5%; % activity [2, 8]: 100%; % activity ([2]; winter barley, 50 g active agent/100 kg barley, about 8 months): 100%; % activity [2, 9]: 100%; % activity [2, 10]: 100%
2 | CC(C)S(=O)(=O)c1nnc(C#N)s1 [5-isopropylsulfonyl-1,3,4-thiadiazole-2-carbonitrile] | 0 | 94 | 97 | 100 | 0 | 0 | 93 | 86 | 97 | 0 | 0 | 70 | 97 | 2 | 18 | 4 | 20 | 4 | 19 | 1 | fungus development on the surface of the nutrient solution (0-5) (Fusarium avenaceum [1]; 0.002%): 0; number of sound peas (Fusarium avenaceum [3]; 25 mg/l soil): 20; root evaluation (1-4) (Fusarium avenaceum [3]; 25 mg/l soil): 4; number of sound peas (Fusarium avenaceum [3]; 50 mg/l soil): 20; root evaluation (1-4) (Fusarium avenaceum [3]; 50 mg/l soil): 4; number of sound peas (Fusarium avenaceum [3]; 100 mg/l soil): 19; root evaluation (1-4) (Fusarium avenaceum [3]; 100 mg/l soil): 4; % activity (Tilletia caries; winter oats, 100 g active agent/100 kg, about 9 months): 100%; fungus development on the surface of the nutrient solution (0-5) (Botrytis cinerea; 0.004%): 0; % activity ([2]; summer barley, 25 g active agent/100 kg barley, about 3 months): 100%; % activity [2, 7]: 99.8%; % activity [2, 8]: 100%; % activity [2, 9]: 99%; % activity [2, 10]: 100%
